Consider 16 compounds from patent publication US9611278B2 (Merck Sharp & Dohme Corp., priority 2013, dated 2017).

The target of this test is T1, sGC α1/β1 heterodimer stably expressed in CHO-K1 cells (CHO-K1/sGC) (Homo sapiens, UniProt Q02108+Q02153).
T1 construct: expressed in transfected cells
T1 sequence (Q02108 1-690): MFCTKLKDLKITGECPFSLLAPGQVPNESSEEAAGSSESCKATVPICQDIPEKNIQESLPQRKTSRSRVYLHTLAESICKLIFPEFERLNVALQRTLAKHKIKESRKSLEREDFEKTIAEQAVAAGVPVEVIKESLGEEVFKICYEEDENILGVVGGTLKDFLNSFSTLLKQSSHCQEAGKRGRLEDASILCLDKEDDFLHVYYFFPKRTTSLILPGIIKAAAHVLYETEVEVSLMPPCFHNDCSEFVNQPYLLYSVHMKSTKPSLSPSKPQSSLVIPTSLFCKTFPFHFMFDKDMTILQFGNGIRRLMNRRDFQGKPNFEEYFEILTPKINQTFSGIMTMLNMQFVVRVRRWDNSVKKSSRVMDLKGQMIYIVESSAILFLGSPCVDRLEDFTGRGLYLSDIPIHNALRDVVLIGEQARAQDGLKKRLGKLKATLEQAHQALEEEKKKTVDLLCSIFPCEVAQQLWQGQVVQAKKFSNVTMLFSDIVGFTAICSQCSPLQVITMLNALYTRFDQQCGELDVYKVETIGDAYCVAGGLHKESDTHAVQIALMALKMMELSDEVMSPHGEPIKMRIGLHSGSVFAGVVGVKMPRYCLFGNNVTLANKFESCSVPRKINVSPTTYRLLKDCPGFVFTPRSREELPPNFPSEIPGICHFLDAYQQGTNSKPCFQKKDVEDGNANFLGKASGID
T1 sequence (Q02153 1-619): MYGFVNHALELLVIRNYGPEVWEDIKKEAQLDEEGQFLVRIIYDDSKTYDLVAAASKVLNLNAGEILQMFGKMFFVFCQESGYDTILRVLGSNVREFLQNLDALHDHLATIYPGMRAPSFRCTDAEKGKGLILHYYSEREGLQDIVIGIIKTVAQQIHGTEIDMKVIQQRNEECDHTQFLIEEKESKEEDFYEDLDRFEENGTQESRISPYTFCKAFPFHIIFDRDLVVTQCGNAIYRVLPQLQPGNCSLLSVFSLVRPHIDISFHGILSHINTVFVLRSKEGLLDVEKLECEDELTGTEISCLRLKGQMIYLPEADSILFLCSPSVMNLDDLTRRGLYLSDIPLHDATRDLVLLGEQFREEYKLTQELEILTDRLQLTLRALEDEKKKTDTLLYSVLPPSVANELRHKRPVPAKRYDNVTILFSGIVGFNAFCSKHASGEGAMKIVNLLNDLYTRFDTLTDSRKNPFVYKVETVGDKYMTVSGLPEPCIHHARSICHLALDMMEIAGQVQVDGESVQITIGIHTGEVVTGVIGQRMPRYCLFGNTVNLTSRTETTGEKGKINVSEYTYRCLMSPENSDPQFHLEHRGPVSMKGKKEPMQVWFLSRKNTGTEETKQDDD
The test can be described thus: Cell-based sGC Functional Assay (CASA Assay). As to conditions: for Emax: CHO-K1, activation as percentage of maximum cGMP production of Compound A (set to 100%), read-out: % Act.; for pEC50: inflection point of cGMP generation in CHO-K1/sGC cells, 4P fit, 1 hr at 37° C., read-out: IP; for % Act.: activation as percentage of maximum cGMP production of Compound A (set to 100%). In outline:
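CHO-K1 cells stably expressing human sGC α1/β1 were incubated with compound for 1 h at 37 °C in buffer with 0.5 mM IBMX and 2.5% DMSO, with or without 1 μM DETA-NO. Intracellular cGMP was read by HTRF and expressed as percentage of maximal activation by reference activator Compound A. Values came from a 4-parameter fit.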

pEC50: −log10 of the molar value.

For `Cn1ccc2c(-c3nc(N)c4c(n3)NC(=O)C4(c3nnc(C4CC4)o3)C3CC3)nc(CCC(F)(F)C(F)(F)F)nc21` (centres unmarked) [Example 88, 4-Amino-5-cyclopropyl-5-(5-cyclopropyl-1,3,4-oxadiazol-2-yl)-7′-methyl-2′-(3,3,4,4,4-pentafluorobutyl)-5,7-dihydro-6H,7′H-[2,4′-bipyrrolo[2,3-d]pyrimidin]-6-one], the Emax turned out to be 109% and the pEC50 is 6.15.
For the compound `Cn1ncc2c(-c3nc(N)c4c(n3)NC(=O)C4(c3nnc(C4(C)CC4)o3)C3CC3)nc(CCC(F)(F)C(F)(F)F)nc21` (centres unmarked) [Example 48, 4-Amino-5-cyclopropyl-2-(1-methyl-6-(3,3,4,4,4-pentafluorobutyl)-1H-pyrazolo[3,4-d]pyrimidin-4-yl)-5-(5-(1-methylcyclopropyl)-1,3,4-oxadiazol-2-yl)-5,7-dihydro-6H-pyrrolo[2,3-d]pyrimidin-6-one], the Emax came out at 112% and the pEC50 was 6.40.
For `CCCCc1nc(-c2nc(N)c3c(n2)NC(=O)C3(C)c2ccc(C(C)C)cn2)c2cnn(C)c2n1` (centres unmarked) [Example 35, 4-Amino-2-(6-butyl-1-methyl-1H-pyrazolo[3,4-d]pyrimidin-4-yl)-5-(5-isopropylpyridin-2-yl)-5-methyl-5,7-dihydro-6H-pyrrolo[2,3-d]pyrimidin-6-one], the Emax was 88% and the pEC50 was 7.02.
As for `Cn1ncc2c(-c3nc(N)c4c(n3)NC(=O)C4(C)c3cn(C4CC4)nn3)nc(CCC(F)(F)C(F)(F)F)nc21` (centres unmarked) [Example 59, 4-Amino-5-(1-cyclopropyl-1H-1,2,3-triazol-4-yl)-5-methyl-2-(1-methyl-6-(3,3,4,4,4-pentafluorobutyl)-1H-pyrazolo[3,4-d]pyrimidin-4-yl)-5,7-dihydro-6H-pyrrolo[2,3-d]pyrimidin-6-one], the Emax was found to be 117% and the pEC50 was 7.54.
As for “4-Amino-5-methyl-5-(5-methyl-1,3,4-thiadiazol-2-yl)-2-(1-methyl-6-(3,3,4,4,4-pentafluorobutyl)-1H-pyrazolo[3,4-d]pyrimidin-4-yl)-5,7-dihydro-6H-pyrrolo[2,3-d]pyrimidin-6-one [Example 27]”, the “% Act.” value is 89% and the pEC50 is 6.68.
Turning to `[2H]C([2H])([2H])n1cc(C2(C)C(=O)Nc3nc(-c4nc(CCC(F)(F)C(F)(F)F)nc5c4cnn5C)nc(N)c32)nn1` (single isomer, unassigned) [Example 77, 4-Amino-5-methyl-2-(1-methyl-6-(3,3,4,4,4-pentafluorobutyl)-1H-pyrazolo[3,4-d]pyrimidin-4-yl)-5-(1-(methyl-d3)-1H-1,2,3-triazol-4-yl)-5,7-dihydro-6H-pyrrolo[2,3-d]pyrimidin-6-one], the Emax was 157% and the pEC50 was 6.77.
For `CC(C)c1nnc(C2(C)C(=O)Nc3nc(-c4nc(CCC(F)(F)C(F)(F)F)nc5c4cnn5C)nc(N)c32)o1` (centres unmarked) [Example 50, 4-Amino-5-(5-isopropyl-1,3,4-oxadiazol-2-yl)-5-methyl-2-(1-methyl-6-(3,3,4,4,4-pentafluorobutyl)-1H-pyrazolo[3,4-d]pyrimidin-4-yl)-5,7-dihydro-6H-pyrrolo[2,3-d]pyrimidin-6-one], the Emax is 176% and the pEC50 is 7.08.
Consider “4-Amino-5-cyclopropyl-2-(6-((3,3-difluorocyclobutyl)methyl)-1-methyl-1H-pyrazolo[3,4-d]pyrimidin-4-yl)-5-(5-ethyl-1,3,4-oxadiazol-2-yl)-5,7-dihydro-6H-pyrrolo[2,3-d]pyrimidin-6-one [Example 52]”, for which the “% Act.” value came out at 148% and the pEC50 is 7.05.
As for `CCC1(c2cn(C)nn2)C(=O)Nc2nc(-c3nc(CCC(F)(F)C(F)(F)F)nc4c3cnn4C)nc(N)c21` (single isomer, unassigned) [Example 58, 4-Amino-5-ethyl-5-(1-methyl-1H-1,2,3-triazol-4-yl)-2-(1-methyl-6-(3,3,4,4,4-pentafluorobutyl)-1H-pyrazolo[3,4-d]pyrimidin-4-yl)-5,7-dihydro-6H-pyrrolo[2,3-d]pyrimidin-6-one], the Emax is 105% and the pEC50 was 6.15.
`CC(CC(F)(F)F)c1nc(-c2nc(N)c3c(n2)NC(=O)C3(C)c2ccc(F)cn2)c2cnn(C)c2n1` (centres unmarked) [Example 6, 4-Amino-5-(5-fluoropyridin-2-yl)-5-methyl-2-(1-methyl-6-(4,4,4-trifluorobutan-2-yl)-1H-pyrazolo[3,4-d]pyrimidin-4-yl)-5,7-dihydro-6H-pyrrolo[2,3-d]pyrimidin-6-one]: the Emax was 137% and the pEC50 is 6.22.
Consider `Cn1ncc2c(-c3nc(N)c4c(n3)NC(=O)C4(C)c3ccccn3)nc(CCC(F)(F)C(F)(F)F)nc21` (centres unmarked) [Example 22, 4-Amino-5-methyl-2-(1-methyl-6-(3,3,4,4,4-pentafluorobutyl)-1H-pyrazolo[3,4-d]pyrimidin-4-yl)-5-(pyridin-2-yl)-5,7-dihydro-6H-pyrrolo[2,3-d]pyrimidin-6-one], for which the Emax came to 103% and the pEC50 is 7.15.
On to `CCC1(c2ccc(OC)nc2)C(=O)Nc2nc(-c3nc(CCC(F)(F)C(F)(F)F)nc4c3cnn4C)nc(N)c21` (centres unmarked) [Example 17, 4-Amino-5-ethyl-5-(6-methoxypyridin-3-yl)-2-(1-methyl-6-(3,3,4,4,4-pentafluorobutyl)-1H-pyrazolo[3,4-d]pyrimidin-4-yl)-5,7-dihydro-6H-pyrrolo[2,3-d]pyrimidin-6-one], for which the Emax was 116% and the pEC50 was 6.91.
For the compound `[2H]C([2H])([2H])n1ncc2c(-c3nc(N)c4c(n3)NC(=O)C4(C)c3cn(C(C)C)nn3)nc(CCC(F)(F)C(F)(F)F)nc21` (single isomer, unassigned) [Example 57, 4-Amino-5-(1-isopropyl-1H-1,2,3-triazol-4-yl)-5-methyl-2-(1-(methyl-d3)-6-(3,3,4,4,4-pentafluorobutyl)-1H-pyrazolo[3,4-d]pyrimidin-4-yl)-5,7-dihydro-6H-pyrrolo[2,3-d]pyrimidin-6-one], the Emax was 125% and the pEC50 is 6.83.
Regarding `[2H]C([2H])([2H])n1ncc2c(-c3nc(N)c4c(n3)NC(=O)C4(c3nnc(C)o3)C3CC3)nc(CCC(F)(F)C(F)(F)F)nc21` (single isomer, unassigned) [Example 40A, 4-Amino-5-cyclopropyl-5-(5-methyl-1,3,4-oxadiazol-2-yl)-2-(1-(methyl-d3)-6-(3,3,4,4,4-pentafluorobutyl)-1H-pyrazolo[3,4-d]pyrimidin-4-yl)-5,7-dihydro-6H-pyrrolo[2,3-d]pyrimidin-6-one], the “% Act.” value is reported as 89% and the pEC50 is 6.43.
Regarding `Cn1ncc2c(-c3nc(N)c4c(n3)NC(=O)C4(C)c3c[nH]nn3)nc(CCC(F)(F)C(F)(F)F)nc21` (single isomer, unassigned) [Example 60, 4-Amino-S-methyl-2-(1-methyl-6-(3,3,4,4,4-pentafluorobutyl)-1H-pyrazolo[3,4-d]pyrimidin-4-yl)-5-(1H-1,2,3-triazol-4-yl)-5,7-dihydro-6H-pyrrolo[2,3-d]pyrimidin-6-one], the Emax turned out to be 136% and the pEC50 was 6.03.
The like results for `Cn1ncc2c(-c3nc(N)c4c(n3)NC(=O)C4(c3cnoc3)C3CC3)nc(CCC(F)(F)C(F)(F)F)nc21` (centres unmarked) [Example 16, 4-Amino-5-cyclopropyl-5-(isoxazol-4-yl)-2-(1-methyl-6-(3,3,4,4,4-pentafluorobutyl)-1H-pyrazolo[3,4-d]pyrimidin-4-yl)-5,7-dihydro-6H-pyrrolo[2,3-d]pyrimidin-6-one] were, in that order, 107% and 6.80.
